Source: patent publication US20150065447A1, “SURVIVAL BENEFIT IN PATIENTS WITH SOLID TUMORS WITH ELEVATED C-REACTIVE PROTEIN LEVELS” (Incyte Corporation, priority 2013, published 2015)
“And” between values parts separate entries of the source, which are not always exact repeats. Identical values can stand only once.

Key:
[1] = molecular target: T1, human JAK2 (a.a. 828-1132) (Homo sapiens, UniProt O60674); assay: In vitro JAK Kinase Assay (HTRF), JAK2 (for JAK2/JAK1 ratio); format: biochemical; details: ratio of IC50s, 1 mM ATP
T1 construct: JAK2 (a.a. 828-1132); His tag (N); made in house; host or cells: insect cells (baculovirus)
T1 sequence (O60674 828-1132): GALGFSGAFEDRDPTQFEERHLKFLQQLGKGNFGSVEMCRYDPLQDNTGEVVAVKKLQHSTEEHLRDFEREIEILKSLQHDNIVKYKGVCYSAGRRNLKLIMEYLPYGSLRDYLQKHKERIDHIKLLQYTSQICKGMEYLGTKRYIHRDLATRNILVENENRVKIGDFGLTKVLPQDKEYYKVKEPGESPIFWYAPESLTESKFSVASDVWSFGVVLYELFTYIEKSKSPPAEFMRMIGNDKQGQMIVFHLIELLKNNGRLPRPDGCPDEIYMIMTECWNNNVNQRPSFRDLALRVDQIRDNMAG
Experimental: (§1) The catalytic activity of JAK1 and JAK2 was assayed by measuring the phosphorylation of a biotinylated peptide. The phosphorylated peptide was detected by homogenous time resolved fluorescence (HTRF). […] Reactions were carried out at room temperature for 1 hr and then stopped with 20 μL 45 mM EDTA, 300 nM SA-APC, 6 nM Eu-Py20 in assay buffer (Perkin Elmer, Boston, Mass.). Binding to the Europium labeled antibody took place for 40 minutes and HTRF signal was measured on a Fusion plate reader (Perkin Elmer, Boston, Mass.).

[2] = molecular target: T2, human JAK1 (a.a. 837-1142) (Homo sapiens, UniProt P23458); assay: In vitro JAK Kinase Assay (HTRF), JAK1; format: biochemical; details: 1 mM ATP
T2 construct: human JAK1 (a.a. 837-1142); His tag (N); made in house; host or cells: insect cells (baculovirus)
T2 sequence (P23458 849-1154): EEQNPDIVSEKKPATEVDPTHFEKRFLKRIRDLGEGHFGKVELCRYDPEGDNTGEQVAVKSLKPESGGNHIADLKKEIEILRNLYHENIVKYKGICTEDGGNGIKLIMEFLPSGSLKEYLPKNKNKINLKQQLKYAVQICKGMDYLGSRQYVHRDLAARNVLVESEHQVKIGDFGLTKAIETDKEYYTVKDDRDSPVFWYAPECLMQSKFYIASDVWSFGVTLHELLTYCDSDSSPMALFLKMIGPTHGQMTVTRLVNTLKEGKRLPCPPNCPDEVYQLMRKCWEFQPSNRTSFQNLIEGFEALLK
Experimental: as §1

[3] = system: Subjects with metastatic pancreatic adenocarcinoma that is recurrent or treatment refractory; assay: Randomized, double-blind study of capecitabine + ruxolitinib phosphate vs capecitabine + placebo, survival by baseline CRP / mGPS; details: for Hazard ratio (Rux/Pbo): Cox regression with formal interaction testing; for Active vs Control Hazard Ratio: ruxolitinib vs placebo; for Number of Subjects with Disease Progression, Observed: progression-free survival (death or progressive disease by RECIST 1.1)
Experimental: Baseline C-reactive protein (CRP) levels were measured for each patient prior to treatment in Arm 1 and Arm 2. Serum CRP concentrations were measured by RMB (RBM multiplexed Luminex®) commercial assay (Myriad RBM). […] The baseline CRP level was calculated on a per patient basis. The patients comprised two groups. Group 1 included all patients who were randomized and took Study Drug. […] For Group 1, the CRP level was the last tested CRP level taken before first dose of Study Drug. For Group 2, the last available value of CRP was taken, if available, for example from screening procedures. With baseline CRP levels for all patients, the median was calculated using normal statistical methods known to one skilled in the art.

[4] = Cox regression analysis of overall survival using baseline predictors, CRP > 13 mg/L, ruxolitinib arm
[5] = overall survival, C-Reactive Protein > 13 (μg/mL), Intent-to-Treat, capecitabine + ruxolitinib arm, N = 31
[6] = overall survival, C-Reactive Protein > 13 (μg/mL), ruxolitinib arm, N = 31
[7] = overall survival, C-Reactive Protein ≦ 13 (μg/mL), Intent-to-Treat, capecitabine + ruxolitinib arm, N = 28
[8] = overall survival, C-Reactive Protein ≦ 13 (μg/mL), ruxolitinib arm, N = 28
[9] = patients with CRP<13 mg/L, ruxolitinib group
[10] = patients with CRP>13 mg/L, ruxolitinib group
[11] = progression-free survival, Table 3, C-Reactive Protein ≦ 13 (μg/mL), ruxolitinib arm, N = 28
[12] = progression-free survival, Table 4, C-Reactive Protein ≦ 13 (μg/mL), ruxolitinib arm, N = 31

N#CCC1(n2cc(-c3ncnc4[nH]ccc34)cn2)CN(C2CCN(C(=O)Nc3ccc(F)cc3C(F)(F)F)CC2)C1 [Compound 8, 4-{3-(Cyanomethyl)-3-[4-(7H-pyrrolo[2,3-d]pyrimidin-4-yl)-1H-pyrazol-1-yl]azetidin-1-yl}-N-[4-fluoro-2-(trifluoromethyl)phenyl]piperidine-1-carboxamide]
JAK2/JAK1 [1]: >10
IC50 [2]: < 10 nM

C[C@@H](CO)NCc1cc(OC2CCN([C@H]3C[C@](CC#N)(n4cc(-c5ncnc6[nH]ccc56)cn4)C3)CC2)nc(C(F)(F)F)c1 [Compound 23, {trans-3-(4-{[4-({[(1S)-2-hydroxy-1-methylethyl]amino}methyl)-6-(trifluoromethyl)pyridin-2-yl]oxy}piperidin-1-yl)-1-[4-(7H-pyrrolo[2,3-d]pyrimidin-4-yl)-1H-pyrazol-1-yl]cyclobutyl}acetonitrile]
JAK2/JAK1 [1]: >10
IC50 [2]: < 10 nM

N#CC[C@H](C1CCCC1)n1cc(-c2ncnc3[nH]ccc23)cn1 [Ruxolitinib, ruxolitinib]
(%) subjects Censored [3, 4]: (20.0) %
(%) subjects who died, Observed [3, 4]: (80.0) %
Number subjects Censored [3, 4]: 6
Number subjects who died, Observed [3, 4]: 24
Hazard ratio (Rux/Pbo) ([3]; subgroup CRP > 13 mg/L): 0.473
Hazard ratio (Rux/Pbo) ([3]; subgroup Karnofsky: 60-80): 0.799
Hazard ratio (Rux/Pbo) ([3]; subgroup Low albumin): 0.618
HR for progression-free survival (PFS) ([3]; intent-to-treat analysis including all randomized patients): 0.75
(%) of Subjects Censored [3, 5]: ( 19.4%)
(%) of Subjects Died, Observed [3, 5]: ( 80.6%)
Number of Subjects Censored [3, 5]: 6
Number of Subjects Died, Observed [3, 5]: 25
Median Time to Event [3, 6]: 83.0 days
Month 3 Survival Rate(%) [3, 6]: 48.4%
Month 6 Survival Rate(%) [3, 6]: 41.5%
Month 9 Survival Rate(%) [3, 6]: 16.5%
Month 12 Survival Rate(%) [3, 6]: 11.0%
Active vs Control Hazard Ratio ([3]; overall survival, C-Reactive Protein > 13 (μg/mL), Cox regression): 0.473
(%) of Subjects Censored [3, 7]: ( 28.6%)
(%) of Subjects Died, Observed [3, 7]: ( 71.4%)
Number of Subjects Censored [3, 7]: 8
Number of Subjects Died, Observed [3, 7]: 20
Median Time to Event [3, 8]: 185.5 days
Month 3 Survival Rate(%) [3, 8]: 82.1%
Month 6 Survival Rate(%) [3, 8]: 50.0%
Month 9 Survival Rate(%) [3, 8]: 37.3%
Month 12 Survival Rate(%) [3, 8]: 19.9%
Active vs Control Hazard Ratio ([3]; overall survival, C-Reactive Protein ≦ 13 (μg/mL), Cox regression): 0.887
Hazard Ratio, Treatment (ruxolitinib vs placebo) ([3]; overall survival, CRP > 13 mg/L, Cox regression accounting for baseline characteristics): 0.50 and 0.501
hazard ratio for PFS ([3]; patients with CRP<13 mg/L): 0.82
probability of PFS at 3 months [3, 9]: 39%
probability of PFS at 6 months [3, 9]: 25%
probability of PFS at 9 months [3, 9]: 10%
HR for PFS ([3]; patients with CRP>13 mg/L): 0.62
proportion showing disease stabilization (RECIST v1.1) ([3]; patients with CRP>13 mg/L receiving ruxolitinib with postbaseline assessments (N=19)): 68.4%
probability of progression-free survival at 3 months [3, 10]: 35%
probability of progression-free survival at 6 months [3, 10]: 21%
probability of progression-free survival at 9 months [3, 10]: 11%
HR for OS ([3]; patients with mGPS of 0 (N=51)): 0.91
HR for OS ([3]; patients with mGPS of 1 (N=34)): 0.71
HR for OS ([3]; patients with mGPS of 2 (N=36)): 0.49
HR (survival) ([3]; post-hoc analysis, patients with CRP≦10 mg/L (N=51)): 0.91
HR in favor of ruxolitinib (survival) ([3]; post-hoc analysis, patients with a CRP>10 mg/L (N=70)): 0.60
Number of Subjects with Disease Progression, Observed ([3]; Table 3, C-Reactive Protein ≦ 13 (μg/mL), ruxolitinib arm, N = 28): 26
Number of Subjects with Disease Progression, Observed ([3]; Table 4, C-Reactive Protein ≦ 13 (μg/mL), ruxolitinib arm, N = 31): 26
(%) of Subjects Censored [3, 11]: ( 7.1%)
(%) of Subjects with Disease Progression, Observed [3, 11]: ( 92.9%)
Median Time to Event [3, 11]: 80.0 days
Month 3 Survival Rate(%) [3, 11]: 39.3%
Month 6 Survival Rate(%) [3, 11]: 25.0%
Month 9 Survival Rate(%) [3, 11]: 10.0%
Number of Subjects Censored [3, 11]: 2
Active vs Control Hazard Ratio ([3]; progression-free survival, Table 3, C-Reactive Protein ≦ 13 (μg/mL)): 0.818
(%) of Subjects Censored [3, 12]: ( 16.1%)
(%) of Subjects with Disease Progression, Observed [3, 12]: ( 83.9%)
Median Time to Event [3, 12]: 48.0 days
Month 3 Survival Rate(%) [3, 12]: 34.5%
Month 6 Survival Rate(%) [3, 12]: 20.7%
Month 9 Survival Rate(%) [3, 12]: 11.0%
Month 12 Survival Rate(%) [3, 12]: 0.0%
Number of Subjects Censored [3, 12]: 5
Active vs Control Hazard Ratio ([3]; progression-free survival, Table 4, C-Reactive Protein ≦ 13 (μg/mL)): 0.619

CCNCc1cc(O[C@H]2CC[C@@H](N3CC(CC#N)(n4cc(-c5ncnc6[nH]ccc56)cn4)C3)CC2)nc(C(F)(F)F)c1 [Compound 19, {l-(cis-4-{[4-[(ethylamino)methyl]-6-(trifluoromethyl)pyridin-2-yl]oxy}cyclohexyl)-3-[4-(7H-pyrrolo[2,3-d]pyrimidin-4-yl)-1H-pyrazol-1-yl]azetidin-3-yl}acetonitrile]
JAK2/JAK1 [1]: >10
IC50 [2]: < 10 nM

N#CCC(C1CCN(c2cccc(Cl)n2)C1)n1cc(-c2ncnc3[nH]ccc23)cn1 (single isomer, unassigned) [Compound 3, 3-[1-(6-chloropyridin-2-yl)pyrrolidin-3-yl]-3-[4-(7H-pyrrolo[2,3-d]pyrimidin-4-yl)-1H-pyrazol-1-yl]propanenitrile]
JAK2/JAK1 [1]: >10
IC50 [2]: < 10 nM

CC(C)(O)c1cc(O[C@H]2CC[C@@H](N3CC(CC#N)(n4cc(-c5ncnc6[nH]ccc56)cn4)C3)CC2)nc(C(F)(F)F)c1 [Compound 20, {1-(cis-4-{[4-(1-hydroxy-1-methylethyl)-6-(trifluoromethyl)pyridin-2-yl]oxy}cyclohexyl)-3-[4-(7H-pyrrolo[2,3-d]pyrimidin-4-yl)-1H-pyrazol-1-yl]azetidin-3-yl}acetonitrile]
JAK2/JAK1 [1]: >10
IC50 [2]: < 10 nM

N#CC[C@]1(n2cc(-c3ncnc4[nH]ccc34)cn2)C[C@H](N2CCC(Oc3cc(CCO)cc(C(F)(F)F)n3)CC2)C1 [Compound 26, {trans-3-(4-{[4-(2-hydroxyethyl)-6-(trifluoromethyl)pyridin-2-yl]oxy}piperidin-1-yl)-1-[4-(7H-pyrrolo[2,3-d]pyrimidin-4-yl)-1H-pyrazol-1-yl]cyclobutyl}acetonitrile]
JAK2/JAK1 [1]: >10
IC50 [2]: < 10 nM

C[C@H](O)CNCc1cc(OC2CCN([C@H]3C[C@](CC#N)(n4cc(-c5ncnc6[nH]ccc56)cn4)C3)CC2)nc(C(F)(F)F)c1 [Compound 25, {trans-3-(4-{[4-({[(2S)-2-hydroxypropyl]amino}methyl)-6-(trifluoromethyl)pyridin-2-yl]oxy}piperidin-1-yl)-1-[4-(7H-pyrrolo[2,3-d]pyrimidin-4-yl)-1H-pyrazol-1-yl]cyclobutyl}acetonitrile]
JAK2/JAK1 [1]: >10
IC50 [2]: < 10 nM

N#CCC(CN1CCN(C(=O)c2ccc(C#N)cc2F)CC1)n1cc(-c2ncnc3[nH]ccc23)cn1 (stereo not shown) [Compound 5, 4-[(4-{3-cyano-2-[4-(7H-pyrrolo[2,3-d]pyrimidin-4-yl)-1H-pyrazol-1-yl]propyl}piperazin-1-yl)carbonyl]-3-fluorobenzonitrile]
JAK2/JAK1 [1]: >10
IC50 [2]: < 10 nM

C[C@@H](O)c1nc2cnc3ccsc3c2n1[C@H]1CC[C@H](CC#N)OC1 [Compound 1, ((2R,5S)-5-{2-[(1R)-1-hydroxyethyl]-1H-imidazo[4,5-d]thieno[3,2-b]pyridin-1-yl}tetrahydro-2H-pyran-2-yl)acetonitrile]
JAK2/JAK1 [1]: >10
IC50 [2]: < 100 nM

N#CC[C@]1(n2cc(-c3ncnc4[nH]ccc34)cn2)C[C@H](N2CCN(C(=O)c3ccnc(C(F)(F)F)n3)CC2)C1 [Compound 10, [trans-1-[4-(7H-pyrrolo[2,3-d]pyrimidin-4-yl)-1H-pyrazol-1-yl]-3-(4-{[2-(trifluoromethyl)pyrimidin-4-yl]carbonyl}piperazin-1-yl)cyclobutyl]acetonitrile]
JAK2/JAK1 [1]: >10
IC50 [2]: < 10 nM
